CC50 and melting point data for 24 compounds are collected here from patent US9890133B2 (priority 2011, dated 2018).

Converted amounts (≈) assume the structure as drawn. Bounds are passed on as bounds.

One data set is described as follows: in vitro. The note with it: human.

Usually melting point stands for the temperature of the solid-liquid transition.

`CCC(C)(C)c1cc(C(C)(C)CC)c2c(c1)C1(O)C(=O)c3ccccc3C1(O)O2` (stereo not drawn) [Example 28, 6,8-Bis-(1,1-dimethyl-propyl)-4b,9b-dihydroxy-4b,9b-dihydro-5-oxa-indeno[2,1-a]inden-10-one] had a melting point of 195 to 222 °C. For the same compound, in the data set “in vitro” (Picorana CC50), the CC50 turned out to be 9.2 µg/mL (≈ 23.3 µM).
Compound `CC(C)OC(=O)Nc1cccc2c1C(=O)C1(O)c3ccc(C(C)C)cc3OC21O` (stereo not drawn) [Example 29, Isopropyl 4b,9b-dihydroxy-7-isopropyl-10-oxo-9b,10-dihydro-4bH-benzo[d]indeno[1,2-b]furan-1-ylcarbamate] came in with a melting point of 200 to 202 °C. In “in vitro” (Picorana CC50), this compound showed a CC50 of 7.49 µg/mL (≈ 18.8 µM).
In the case of `O=C1c2ccccc2C2(O)Oc3c(ccc4c3CCCC4)C12O` (stereo not drawn) [Example 31, 6b,11b-Dihydroxy-1,2,3,4,6b,11b-hexahydro-12-oxa-benzo[4,5]pentaleno[2,1-a]naphthalen-7-one], the melting point lay in the range of 252 to 254 °C. In “in vitro” (Picorana CC50), this compound registered a CC50 of 8.9 µg/mL (≈ 28.9 µM).
For the compound `COc1ccc2c(c1)C(=O)C1(O)c3ccc(C(C)C)cc3OC21O` (stereo not drawn) [Example 32, 4b,9b-Dihydroxy-7-isopropyl-2-methoxy-4b,9b-dihydro-5-oxa-indeno[2,1-a]inden-10-one], the melting point lay in the range of 98 to 102 °C. The compound further showed a CC50 in “in vitro” (Picorana CC50) of 8.1 µg/mL (≈ 24.8 µM).
For `CC(C)c1ccc2c(c1)OC1(OC(=O)C(C)(C)C)c3ccccc3C(=O)C21OC(=O)C(C)(C)C` (stereo not drawn) [Example 33, 7-Isopropyl-10-oxo-9b,10-dihydro-4bH-benzo[d]indeno[1,2-b]furan-4b,9b-diyl bis(2,2-dimethylpropanoate)] the same measures were 153 to 157 °C and over 50 µg/mL.
`CC(C)c1ccc2c(c1)OC1(OC(=O)/C=C/c3ccccc3)c3ccccc3C(=O)C21OC(=O)/C=C/c1ccccc1` (stereo not drawn) [Example 34, (2E,2′E)-7-Isopropyl-10-oxo-9b,10-dihydro-4bH-benzo[d]indeno[1,2-b]furan-4b,9b-diyl bis(3-phenylacrylate)] gave a melting point of 111 to 113 °C. For the same compound, the CC50 in the data set “in vitro” (Picorana CC50) was over 50 µg/mL.
Turning to `C=CC(=O)OC12Oc3cc(C(C)C)ccc3C1(O)C(=O)c1ccccc12` (stereo not drawn) [Example 35, 9b-Hydroxy-7-isopropyl-10-oxo-9b,10-dihydro-4bH-benzo[d]indeno[1,2-b]furan-4b-yl acrylate], the melting point lay within 95 to 97 °C. The compound also displayed a CC50 in “in vitro” (Picorana CC50) of 46.7 µg/mL (≈ 133 µM).
`CC(C)c1ccc2c(c1)OC1(OC(=O)c3ccco3)c3ccccc3C(=O)C21O` (stereo not drawn) [Example 36, 9b-Hydroxy-7-isopropyl-10-oxo-9b,10-dihydro-4bH-benzo[d]indeno[1,2-b]furan-4b-yl furane-2-carboxylatefurane-2-carboxylic acid] returned a melting point of 116 to 120 °C. For the same compound, the CC50 in “in vitro” (Picorana CC50) was determined as 9.34 µg/mL (≈ 23.9 µM).
`CCOC(=O)OC12Oc3cc(C(C)C)ccc3C1(OC(=O)OCC)C(=O)c1ccccc12` (stereo not drawn) [Example 37, Diethyl 7-isopropyl-10-oxo-9b,10-dihydro-4bH-benzo[d]indeno[1,2-b]furane-4b,9b-diyl dicarbonate] registered a melting point of 150 to 153 °C. The CC50 in “in vitro” (Picorana CC50) came out at 9.68 µg/mL (≈ 22 µM).
`CCOC(=O)OC12Oc3cc(C(C)C)ccc3C1(O)C(=O)c1ccccc12` (stereo not drawn) [Example 38, Ethyl 9b-hydroxy-7-isopropyl-10-oxo-9b,10-dihydro-4bH-benzo[d]indeno[1,2-b]furan-4b-yl carbonate] registered a melting point of 144 to 147 °C. In the data set “in vitro” (Picorana CC50), this compound returned a CC50 of 9.5 µg/mL (≈ 25.8 µM).
Compound `COC(=O)c1ccc2c(c1)C1(O)C(=O)c3ccccc3C1(O)O2` (stereo not drawn) [Example 39, Methyl 4b,9b-dihydroxy-10-oxo-9b,10-dihydro-4bH-benzo[d]indeno[1,2-b]furan-8-carboxylate] gave a melting point of 220 to 223 °C. This compound gave a CC50 in “in vitro” (Picorana CC50) of 45.1 µg/mL (≈ 144 µM).
Consider `CCN(CC)C(=O)OC12Oc3cc(C(C)C)ccc3C1(O)C(=O)c1ccccc12` (stereo not drawn) [Example 40, 9b-Hydroxy-7-isopropyl-10-oxo-9b,10-dihydro-4bH-benzo[d]indeno[1,2-b]furan-4b-yl diethylcarbamate], for which the melting point was 127 to 130 °C. Besides, the CC50 in the data set “in vitro” (Picorana CC50) came to 44 µg/mL (≈ 111 µM).
`CCN(CC)C(=O)OC12C(=O)c3ccccc3C1(O)Oc1cc(C(C)C)ccc12` (stereo not drawn) [Example 41, 4b-Hydroxy-7-isopropyl-10-oxo-9b,10-dihydro-4bH-benzo[d]indeno[1,2-b]furan-9b-yl diethylcarbamate] registered a melting point of 101 to 104 °C. The same compound displayed a CC50 in the data set “in vitro” (Picorana CC50) of 27.1 µg/mL (≈ 68.6 µM).
Compound `CC(C)c1ccc2c(c1)OC1(O)c3cc(F)c(F)cc3C(=O)C21O` (stereo not drawn) [Example 42, 2,3-Difluoro-4b,9b-dihydroxy-7-isopropyl-4bH-benzo[d]indeno[1,2-b]furan-10(9bH)-one] had a melting point of 134 to 136 °C. The compound further displayed a CC50 in the data set “in vitro” (Picorana CC50) of 8.94 µg/mL (≈ 26.9 µM).
`CC(C)c1ccc2c(c1)O[C@@]1(O)c3cccc(O)c3C(=O)[C@@]21O` [Example 43, 1,4b,9b-Trihydroxy-7-isopropyl-4bH-benzo[d]indeno[1,2-b]furan-10(9bH)-one] displayed a melting point of 205 to 207 °C. Moreover, the CC50 in “in vitro” turned out to be 33.2 µg/mL (≈ 106 µM).
With `CC(C)c1ccc2c(c1)O[C@@]1(O)c3cc4ccccc4cc3C(=O)[C@@]21O` [Example 44, 4b,9b-Dihydroxy-7-isopropyl-1H-cyclopenta[b]naphthalene o[1,2-b]furan-10(9bH)-one], the melting point was in the range of 186 to 189 °C. The compound also came in with a CC50 in the data set “in vitro” (Picorana CC50) of 6.25 µg/mL (≈ 18 µM).
In turn, `CC(=O)Nc1cccc2c1C(=O)C1(O)c3ccc(C(C)C)cc3OC21O` (stereo not drawn) [Example 48, N-(4b,9b-Dihydroxy-7-isopropyl-10-oxo-9b,10-dihydro-4bH-benzo[d]indeno[1,2-b]furan-1-yl)acetamide] gave a melting point of 152 to 154 °C. The CC50 in “in vitro” (Picorana CC50) amounted to 35 µg/mL (≈ 99.1 µM).
With `COC(=O)Nc1cccc2c1C(=O)C1(O)c3ccc(C(C)C)cc3OC21O` (stereo not drawn) [Example 49, Methyl 4b,9b-dihydroxy-7-isopropyl-10-oxo-9b,10-dihydro-4bH-benzo[d]indeno[1,2-b]furan-1-ylcarbamate], the melting point lay in the range of 96 to 99 °C. Moreover, the CC50 in the data set “in vitro” (Picorana CC50) is 9.18 µg/mL (≈ 24.9 µM).
Take `COC(=O)O[C@@]12Oc3cc(C(C)C)ccc3[C@]1(OC(=O)OC)C(=O)c1c(N)cccc12` [Example 51]: the melting point was 110 to 120 °C. This compound came in with a CC50 in the data set “in vitro” (Picorana CC50) of 17.5 µg/mL (≈ 40.9 µM).
Take `CCc1ccc2c(c1)OC1(O)c3ccc(O)cc3C(=O)C21O` (stereo not drawn) [Example 52, 7-Ethyl-2,4b,9b-trihydroxy-4b,9b-dihydro-5-oxa-indeno[2,1-a]inden-10-one]: the melting point was 208 to 213 °C. In addition, the CC50 in the data set “in vitro” (Picorana CC50) was over 50 µg/mL.
For `CC(=O)OC12Oc3cc(C(C)C)ccc3C1(OC(C)=O)C(=O)c1c([N+](=O)[O-])cccc12` (stereo not drawn) [Example 53], the melting point fell in the range of 201 to 203 °C. In “in vitro” (Picorana CC50), this compound showed a CC50 of 45.6 µg/mL (≈ 107 µM).
In turn, `CC(C)NC(=O)Nc1cccc2c1C(=O)C1(O)c3ccc(C(C)C)cc3OC21O` (stereo not drawn) [Example 55] had a melting point of 81 to 85 °C. This compound had a CC50 in the data set “in vitro” (Picorana CC50) of 7.49 µg/mL (≈ 18.9 µM).
For `CC(=O)Nc1cccc2c1C(=O)C1(N)c3ccc(C(C)C)cc3OC21O` (stereo not drawn) [Example 56] the same measures were 152 to 156 °C and 42.2 µg/mL (≈ 120 µM).
Taken in the same sequence, the figures for `CC(=O)Nc1cccc2c1C(=O)C1(NC(C)=O)c3ccc(C(C)C)cc3OC21O` (stereo not drawn) [Example 57, N,N′-(4b-Hydroxy-7-isopropyl-10-oxo-9b,10-dihydro-4bH-benzo[d]indeno[1,2-b]furane-1,9b-diyl)diacetamide] were 189 to 191 °C and 46.7 µg/mL (≈ 118 µM).
